Test results reported in patent US9505749B2, “Quinazolinone compounds and derivatives thereof” (AMGEN INC., priority 2012, dated 2016).

Assays:
[1] = target: PARP1 (Homo sapiens (Human), UniProt P09874); assay: PARP1 biochemical assay (Trevigen kit)
Source text: PARP1 biochemical assay was purchased as a kit from Trevigen (cat.#4676-096-K) and used per manufacturers recommendations.

[2] = target: PARP2 (Homo sapiens (Human), UniProt Q9UGN5); assay: PARP2 biochemical assay (BPS kit)
[3] = target: 6×HIS-tankyrase1 (1091-1325) (Homo sapiens (Human), UniProt O95271); assay: Tankyrase 1 biochemical assay (AlphaLisa, PARsylation); settings: 400 nM NAD, 60 minutes at RT; read-out: TNKS1 IC50
[4] = test system: total β-catenin in SW480 colorectal cells; assay: Total β-catenin MSD 96-well plate assay for SW480 cells; settings: Homo sapiens, SW480, read-out: SW480-Total beta-catenin (TBC) IC50 IP
[5] = target: 6×HIS-tankyrase 2 (946-1162) (Homo sapiens (Human), UniProt Q9H2K2); assay: Tankyrase 2 biochemical assay (AlphaLisa, PARsylation); settings: 250 nM NAD; read-out: TNKS2 IC50
[6] = test system: Axin2 accumulation in SW480 cells; assay: Axin2 384 immunofluorescence assay; format: cell-based; settings: Homo sapiens; SW480 cells, 24 hours; read-out: Axin2 384 IF EC50

6×HIS-tankyrase 2 (946-1162), sequence (Q9H2K2 946-1162): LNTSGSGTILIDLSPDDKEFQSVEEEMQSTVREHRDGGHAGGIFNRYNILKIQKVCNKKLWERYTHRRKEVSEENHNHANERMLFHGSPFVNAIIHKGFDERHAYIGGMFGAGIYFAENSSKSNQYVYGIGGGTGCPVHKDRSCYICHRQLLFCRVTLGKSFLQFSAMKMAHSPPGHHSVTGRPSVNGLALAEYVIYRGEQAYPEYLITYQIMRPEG
PARP2, sequence (Q9UGN5 whole entry): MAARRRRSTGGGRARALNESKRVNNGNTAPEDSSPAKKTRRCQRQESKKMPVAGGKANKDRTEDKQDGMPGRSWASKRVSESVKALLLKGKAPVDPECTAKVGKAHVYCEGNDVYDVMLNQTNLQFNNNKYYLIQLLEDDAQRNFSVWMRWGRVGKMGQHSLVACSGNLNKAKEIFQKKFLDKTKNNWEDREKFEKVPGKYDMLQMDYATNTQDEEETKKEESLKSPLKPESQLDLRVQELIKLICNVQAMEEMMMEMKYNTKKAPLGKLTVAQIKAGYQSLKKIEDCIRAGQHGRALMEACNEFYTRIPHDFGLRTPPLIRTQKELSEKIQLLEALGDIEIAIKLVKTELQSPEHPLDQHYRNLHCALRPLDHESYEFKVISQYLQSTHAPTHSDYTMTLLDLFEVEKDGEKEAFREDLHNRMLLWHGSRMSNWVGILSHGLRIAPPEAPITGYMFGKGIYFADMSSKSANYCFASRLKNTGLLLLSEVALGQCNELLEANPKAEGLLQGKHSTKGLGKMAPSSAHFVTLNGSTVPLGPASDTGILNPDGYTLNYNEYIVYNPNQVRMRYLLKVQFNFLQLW
PARP1, sequence (P09874 whole entry): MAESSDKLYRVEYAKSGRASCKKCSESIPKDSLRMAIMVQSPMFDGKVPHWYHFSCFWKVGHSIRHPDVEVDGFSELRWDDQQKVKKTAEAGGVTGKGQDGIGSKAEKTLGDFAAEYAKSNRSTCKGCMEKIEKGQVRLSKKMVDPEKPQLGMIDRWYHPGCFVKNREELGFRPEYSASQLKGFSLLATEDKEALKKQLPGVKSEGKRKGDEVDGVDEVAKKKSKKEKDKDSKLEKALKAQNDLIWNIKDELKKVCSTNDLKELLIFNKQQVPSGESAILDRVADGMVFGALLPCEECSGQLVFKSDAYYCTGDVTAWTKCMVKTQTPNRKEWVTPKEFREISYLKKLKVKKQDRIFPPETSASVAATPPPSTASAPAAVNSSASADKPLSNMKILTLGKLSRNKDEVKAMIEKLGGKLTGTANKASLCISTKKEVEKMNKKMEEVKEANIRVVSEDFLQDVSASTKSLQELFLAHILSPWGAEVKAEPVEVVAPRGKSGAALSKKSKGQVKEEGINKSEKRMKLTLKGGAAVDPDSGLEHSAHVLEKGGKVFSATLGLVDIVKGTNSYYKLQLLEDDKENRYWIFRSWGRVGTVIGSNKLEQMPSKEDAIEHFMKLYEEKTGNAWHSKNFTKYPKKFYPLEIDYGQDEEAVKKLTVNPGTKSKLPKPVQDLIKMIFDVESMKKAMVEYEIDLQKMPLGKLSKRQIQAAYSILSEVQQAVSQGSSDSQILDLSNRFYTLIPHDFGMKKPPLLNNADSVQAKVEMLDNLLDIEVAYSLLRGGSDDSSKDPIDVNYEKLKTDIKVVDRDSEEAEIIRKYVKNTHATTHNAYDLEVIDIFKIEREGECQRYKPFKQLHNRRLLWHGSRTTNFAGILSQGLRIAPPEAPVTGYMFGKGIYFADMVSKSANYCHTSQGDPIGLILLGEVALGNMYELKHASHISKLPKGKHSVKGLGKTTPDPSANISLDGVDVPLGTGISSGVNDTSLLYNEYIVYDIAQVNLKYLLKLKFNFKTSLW
6×HIS-tankyrase1 (1091-1325), sequence (O95271 1091-1325): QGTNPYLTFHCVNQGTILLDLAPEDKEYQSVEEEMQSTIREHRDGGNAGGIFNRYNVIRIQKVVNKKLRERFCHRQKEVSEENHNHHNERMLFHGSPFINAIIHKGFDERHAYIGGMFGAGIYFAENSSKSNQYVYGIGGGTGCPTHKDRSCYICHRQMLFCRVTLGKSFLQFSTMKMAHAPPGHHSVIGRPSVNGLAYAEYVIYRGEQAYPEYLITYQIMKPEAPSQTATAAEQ

Row | Compound | IC50 [1] [nM] | IC50 [2] [nM] | IC50 [3] [nM] | IC50 [4] [nM] | IC50 [5] [nM] | EC50 [6] [nM]
1 | O=C(CCCc1nc2ccccc2c(=O)[nH]1)N1CCC(n2c(=O)sc3ccccc32)CC1 [Example 50, 2-(4-oxo-4-(4-(2-oxo-1,3-benzothiazol-3(2H)-yl)-1-piperidinyl)butyl)-4(3H)-quinazolinone trifluoroacetic acid] | 10700 | 748 | 6.49 | 256 | 1.81 | 1550
2 | O=C(CCCc1nc2ccccc2c(=O)[nH]1)N1CCC(c2nnc(-c3ccccc3)o2)CC1 [Example 42, 2-(4-oxo-4-(4-(5-phenyl-1,3,4-oxadiazol-2-yl)-1-piperidinyl)butyl)-4(3H)-quinazolinone] | 7470 | 825 | 28.2 | 132 | 8.26 | 843
3 | O=C(CCCc1nc2ccccc2c(=O)[nH]1)N1CCC(c2nnc(-c3ccccc3Cl)o2)CC1 [Example 16, 2-(4-(4-(5-(2-chlorophenyl)-1,3,4-oxadiazol-2-yl)-1-piperidinyl)-4-oxobutyl)-4(3H)-quinazolinone] | 5070 | 560 | 107 | 1190 | 17.9 | 1900
4 | N#Cc1cccc(-c2nnc(C3CCN(C(=O)CCCc4nc5ccccc5c(=O)[nH]4)CC3)o2)c1 [Example 20, 3-(5-(1-(4-(4-oxo-3,4-dihydroquinazolin-2-yl)butanoyl)piperidin-4-yl)-1,3,4-oxadiazol-2-yl)benzonitrile] | 2850 | 370 | 11.3 | 151 | 3.19 | 166
5 | Cc1ccc2c(c1)[nH]c(=O)n2C1CCN(C(=O)CCCc2nc3ccccc3c(=O)[nH]2)CC1 [Example 11, 2-(4-(4-(5-methyl-2-oxo-2,3-dihydro-1H-benzimidazol-1-yl)-1-piperidinyl)-4-oxobutyl)-4(3H)-quinazolinone] | 867 | 103 | 2.76 | 157 | 1.6 | 247
6 | O=C(CCCc1nc2ccccc2c(=O)[nH]1)N1CCC(c2nnc(-c3ccc(Cl)cc3)o2)CC1 [Example 4, 2-(4-(4-(5-(4-chlorophenyl)-1,3,4-oxadiazol-2-yl)piperidin-1-yl)-4-oxobutyl)quinazolin-4(3H)-one] | 2410 | 961 | 11 | 36.4 | 2.06 | 210

The remaining compounds from weak to strong by IC50 [1], led by results:

Row | IC50 [1] [nM] | IC50 [2] [nM] | IC50 [3] [nM] | IC50 [4] [nM] | IC50 [5] [nM] | EC50 [6] [nM] | Compound
7 | 8540 | 2180 | 79.7 | 837 | 15.5 | 1250 | O=C(CCCc1nc2ccccc2c(=O)[nH]1)N1CCC(c2nnc(-c3cnccn3)o2)CC1 [Example 14, 2-(4-oxo-4-(4-(5-(2-pyrazinyl)-1,3,4-oxadiazol-2-yl)-1-piperidinyl)butyl)-4(3H)-quinazolinone]
8 | 7090 | 1240 | 42.8 | 358 | 6.54 | 461 | O=C(CCCc1nc2ccccc2c(=O)[nH]1)N1CCC(c2nnc(-c3cccnc3)o2)CC1 [Example 13, 2-(4-oxo-4-(4-(5-(3-pyridinyl)-1,3,4-oxadiazol-2-yl)-1-piperidinyl)butyl)-4(3H)-quinazolinone]
9 | 3760 | 2350 | 31.8 | 92.2 | 4.84 | 771 | O=C(CCCc1nc2ccccc2c(=O)[nH]1)N1CCC(c2nnc(-c3cccc(F)c3)o2)CC1 [Example 5, 2-(4-(4-(5-(3-fluorophenyl)-1,3,4-oxadiazol-2-yl)-1-piperidinyl)-4-oxobutyl)-4(3H)-quinazolinone]
10 | 1690 | 1110 | 18.8 | 226 | 4.95 | 257 | COc1cccc(-c2nnc(C3CCN(C(=O)CCCc4nc5ccccc5c(=O)[nH]4)CC3)o2)c1 [Example 24, 2-(4-(4-(5-(3-methoxyphenyl)-1,3,4-oxadiazol-2-yl)piperidin-1-yl)-4-oxobutyl)quinazolin-4(3H)-one]
11 | 1390 | 998 | 3.11 | 614 | 1.02 | 628 | O=C(CCCc1nc2ccccc2c(=O)[nH]1)N[C@H]1CC[C@H](Oc2cccc(Cl)c2)CC1 [Example 66, N-(trans-4-(3-chlorophenoxy)cyclohexyl)-4-(4-oxo-3,4-dihydro-2-quinazolinyl)butanamide]
12 | 1140 | 701 | 0.367 | 29.9 | 0.27 | 22 | O=C(CCCc1nc2ccccc2c(=O)[nH]1)N[C@H]1CC[C@H](c2nnc(-c3cccc(Cl)c3)o2)CC1 [Example 36, N-(trans-4-(5-(3-chlorophenyl)-1,3,4-oxadiazol-2-yl)cyclohexyl)-4-(4-oxo-3,4-dihydro-2-quinazolinyl)butanamide 2,2,2-trifluoroacetate]
13 | 887 | 99.7 | 1.34 | 63.7 | 0.478 | 114 | O=C(CCCc1nc2ccccc2c(=O)[nH]1)N1CCC(n2c(=O)[nH]c3cc(Cl)ccc32)CC1 [Example 27, 2-(4-(4-(5-chloro-2-oxo-2,3-dihydro-1H-benzimidazol-1-yl)-1-piperidinyl)-4-oxobutyl)-4(3H)-quinazolinone]
14 | 801 | 828 | 0.495 | 15.7 | 0.301 | 32.5 | COc1cccc(-c2nnc([C@H]3CC[C@H](NC(=O)CCCc4nc5ccccc5c(=O)[nH]4)CC3)o2)c1 [Example 32, N-(trans-4-(5-(3-methoxyphenyl)-1,3,4-oxadiazol-2-yl)cyclohexyl)-4-(4-oxo-3,4-dihydro-2-quinazolinyl)butanamide]
15 | 636 | 227 | 0.783 | 161 | 0.292 | 239 | N#Cc1ccc2c(c1)[nH]c(=O)n2C1CCN(C(=O)CCCc2nc3ccccc3c(=O)[nH]2)CC1 [Example 68, 2-oxo-1-(1-(4-(4-oxo-3,4-dihydro-2-quinazolinyl)butanoyl)-4-piperidinyl)-2,3-dihydro-1H-benzimidazole-5-carbonitrile]
16 | 558 | 246 | 2.23 | 7.14 | 0.434 | 49.2 | N#Cc1ccc(O[C@H]2CC[C@H](NC(=O)CCCc3nc4ccccc4c(=O)[nH]3)CC2)cc1 [Example 78, N-(trans-4-(4-cyanophenoxy)cyclohexyl)-4-(4-oxo-3,4-dihydro-2-quinazolinyl)butanamide]
